One assay deals with 4MOSC1. Kind of assay: Cytotoxicity, Alamar Blue assay. To be noted: 4MOSC1, 72 h drug exposure, one value per biological replicate, read-out: IC50 values. Format: cell-based, murine. How it is done: (§1) Murine colorectal (MC38 (ENH204-FP)) cancer cell lines were obtained from Kerafast. Murine head and neck MOC1 and MOC2 were generously provided by Dr. R. Uppaluri. CAL27 PIK3CA H1047R expressing cells and 4MOSC1 cells were generated in Dr. Gutkind’s laboratory and previously characterized[42],[55]. […] MC38 cells were cultured in DMEM supplemented with 10% FBS, 1 mM sodium pyruvate (Gibco), 1% non-essential amino acids (Gibco), and 10 mM HEPES (Gibco). MOC1 and MOC2 cells were cultured in IMDM (Lonza)/F-12K nutrient mixture at a 2:1 mixture with 5% FBS, 5 ng/ml EGF (EMD Millipore), 400 ng/ml hydrocortisone (Sigma), and […] insulin (Sigma). On receipt, each cell line was expanded, cryopreserved as low passage stocks, and routinely tested for mycoplasma. Cisplatin (Enzo Biosciences), paclitaxel (Sigma), and MMAE (Concortis) were reconstituted in DMSO. Clinical-grade CDX3379 was provided by Celldex. Clinical grade cetuximab (Erbitux, Lilly Medical) was obtained from UCSD Moores Cancer Center Pharmacy.
(§2) Cells were plated in 96-well plates and exposed to a drug concentration range for 72 h. Alamar Blue was added to the cells and allowed to incubate for 2–4 h at 37 °C. Plates were analyzed using a plate reader with fluorescence measured at 560 nm. Fractional survival was normalized to untreated control cell fluorescent values. Drug IC50 was calculated using Prism software (GraphPad, La Jolla, CA). Cell viability, cytotoxicity and apoptosis were also measured by ApoTox-Glo Triplex Assay (Promega).
(In general: The colour change of resazurin is a common sign of viable cells or microbes.)

For the next assay, the system named is B16. The assay can be described thus: Cytotoxicity, Alamar Blue assay. Particulars: B16, 72 h drug exposure, one value per biological replicate, read-out: IC50 values. Format: cell-based, murine. How it is done:
as §1, §2

In a further assay the test system is MC38. The assay can be described thus: Cytotoxicity, Alamar Blue assay. Particulars: MC38, 72 h drug exposure, one value per biological replicate, read-out: IC50 values. Format: cell-based, murine. How it is done: as §1, §2
The subject of the next assay is MOC2 tumors. The assay can be described thus: Orthotopic syngeneic tongue tumor therapy, tumor volumes. Particulars: single 2.5 nmole i.v. injection. Format: in vivo, C57BL/6 mice. An excerpt:
Orthotopic tongue xenograft tumors were established in 6-week-old NOD SCID mice by injecting 150,000 CAL27 parental (WT) or PIK3CA H1047R-expressing cells. […] On the last day of tumor xenograft measurements, mice were euthanized, tongues resected, imaged, and fixed. […] IR was delivered as 2 parallel opposed fields.
6-week-old C57BL/6 female mice were implanted with 50,000 MOC2 cells into the tongue. […] Five days after treatment, tumors were isolated, minced, and re-suspended in FBS-free DMEM media supplemented with components of MACs tumor dissociation kit. Tissues were incubated for 15 min at 37 °C and mechanically digested using the gentle MACs Octo Dissociator. Digested samples were then passed through a 100-µm strainer to acquire a single-cell. For viability staining, cells were washed in PBS and stained with Cell-ID Cisplatin (DVS Sciences) to a final concentration of 5 μM for 5 min at room temperature. Cisplatin was quenched when cells were washed and stained with the antibody cocktail. Antibodies were prepared in Maxpar cell staining buffer (PBS with 2 mM EDTA, 0.1% BSA, 0.05% NaN3) and incubated with cells for 15 min at room temperature. […] Antibodies (clone in parenthesis) used for CyTOF included B220 (RA3-6B2), CD117(2B8), CD11c (N418), CD25 (3C7), CD4 (RM4-5), CD45 (30-F11), CD8a (53-6.7), MHC-II (M5/114.15.2), NKP46 (29A1.4), TCRb (H57-597) from Fluidigm. […]

Another assay concerns B16 tumors. From the text: (§3) LL/2 cells treated with dose range of MMAE overnight and then […] in drug free media for 7-10 days to allow for visualized colonies to form.
(§4) Statistical significances calculated using one-way ANOVA with Tukey’s multiple comparisons test. 0.9 b) Cell cycle analysis […]
(§5) of MMAE treated LL/2 cells, mean ± SD, n=2. […]
(§6) experiments. c) Clonogenic survival of LL/2 cells treated with MMAE and 2 Gy (SF2). Cell Days viability normalized to non-irradiated cells for each drug condition and plotted as mean fractional survival ± SEM, n=6. Statistical significances calculated using one-way ANOVA with Sidak’s multiple comparisons test. d) Tumor volumes (n=10) and mouse body weights (n=5) of mice from experiments in Fig. 3e. Tumor volumes plotted as mean volume of surviving mice ± SEM.
(§7) Mouse body weight were normalized to each mouse’s weight on day 0, i.e. tumor implantation.
(§8) Data plotted as mean fractional body weight ± SEM. e) Mouse body weights of mice (n=5) from experiments in Fig. 4h were normalized to each mouse’s weight on day of tumor implantation.
(§9) Data is plotted as individual normalized body weights. f) Mouse body weights of mice from experiments in Fig. 5e, f were normalized to each mouse’s weight on day of tumor implantation.
(§10) Source data are provided in Source Data file.

The next assay relates to LL/2 tumors. To be noted: for Mouse survival, status: individual mice, status at the day, Figure 3e.
Text: as §3, §4, §5, §6, §7, §8, §9, §10

The next assay deals with MC38 tumors.
Text: as §3, §4, §5, §6, §7, §8, §9, §10

Where [1] appears, read: 10 nmoles ACPP-MMAE x 2 doses + IR 5 Gy/day x 3.
[2] abbreviates: 10 nmoles ACPP-MMAE x 2 doses, no IR.
Where [3] appears, read: ACPP-MMAE alone, individual mice, status at the day, Figure 3e.

Values joined by “and” are separate entries in the source; they are usually repeats but may differ in a detail not shown here. Equal values may be shown once. Read-outs that look alike come from different tables or passages of the source. Non-standard residues stand in square brackets, D forms with d. Residues, ends and D or L forms follow the SMILES beside them. *: point of attachment. Dolaproine = CO[C@@H]([C@@H]1CCCN1)[C@@H](C)C(=O)O; Dil = CC[C@H](C)[C@H](NC)[C@@H](CC(=O)O)OC; X1 = C[C@@H](N*)[C@@H](O)c1ccccc1; NMeV = CN[C@H](C(=O)O)C(C)C

Regarding `CC[C@H](C)[C@@H]([C@@H](CC(=O)N1CCC[C@H]1[C@H](OC)[C@@H](C)C(=O)N[C@H](C)[C@@H](O)c1ccccc1)OC)N(C)C(=O)[C@@H](NC(=O)[C@@H](NC)C(C)C)C(C)C` [MMAE, monomethyl auristatin E] (H-[NMeV]V[Dil][Dolaproine]-X1), the half-inhibitory concentration (IC50) in the assay with 4MOSC1 is 1.82 nM and 1.52 nM; with B16 it was 1.77 nM and 2.33 nM and 1.94 nM and 3.12 nM; in the assay with MC38, 14.4 nM and 14.9 nM and 30.4 nM.
“CDX3379-MMAE: anti-HER3 antibody CDX3379 with 4 MMAE per antibody via MC-VC-PABC linker, labeled with Cy5”: in the assay on MOC2 tumors, the tumor growth entry is reported as “modest tumor growth delay”.
Turning to “cyclo(RGD)fc-MC-HN-peg8-e9-oPLGC(Me)AG-r9-c-(MC-VC-PABC-MMAE)-CONH2 [ACPP-MMAE]”, the “survival and tumor control, + IR” value with B16 tumors (setting [1]) was “long-term survival and tumor control”; in the assay on LL/2 tumors (setting [1]) it was “modestly prolonged mouse survival and tumor control”; in the assay on MC38 tumors (10 nmoles ACPP-MMAE x 2 doses + IR 3 Gy/day x 3), “long-term survival and tumor control”. Moreover, the “anti-tumor efficacy, monotherapy” value with B16 tumors (setting [2]), in the assay with LL/2 tumors (setting [2]) and in the assay on MC38 tumors (setting [2]) was “lacked significant anti-tumor efficacy” each time. For the same compound, the “Mouse survival, status” value with B16 tumors (setting [3]), in the assay on LL/2 tumors (ACPP-MMAE + IR), with LL/2 tumors (ACPP-MMAE alone) and in the assay on MC38 tumors (setting [3]) was 1 throughout.

The IC50 is the midpoint of a concentration-inhibition curve.

These data come from PMC9256669, “Monomethyl auristatin antibody and peptide drug conjugates for trimodal cancer chemo-radio-immunotherapy” (Nature Communications, 2022).
